Assay results as given in patent publication US20200024246A1, “POGOSTONE DERIVATIVES AND METHODS OF USING THE SAME” (Hamyard Associates LLC, priority 2018, published 2020).
In brackets after ≈: the same amount, converted by molar mass. Entries after “also recorded” stand apart in the source; their conditions may differ. Like-named read-outs stand apart in the source and are kept apart here.

Experiments:
[1] = test system: adult, female mosquitoes; test: Topical application on adult female mosquitoes (24-h mortality, 1-h knockdown); type: in vivo, mosquito; details: for ED50: read-out: KD50 (ug/g mosquito); for LD50: read-out: LD50 (ug/g mosquito); for insecticidal properties compared with natural pogostone, natural pyrethrins or terpenoids: words, refers to Table 1
[2] = test system: house flies; test: Topical application on house flies; details: for LD50 (ug/g fly): House Fly Toxicity, topical
[3] = test system: adult house flies; test: Topical application of pogostone derivatives with PBO or plant essential oil on house flies; type: in vivo, house fly; details: for LD50 / LD50 (μg/g): house flies, topical, derivative alone or in combination with PBO
Protocol: Combinations of select pogostone derivatives with select concentrations of PBO or plant essential oils was performed. […] Synergists were applied as a subsequent application directly after the application of pogostone derivatives. Concentrations of synergists (plant oils or PBO) were chosen that produced no mortality at 24 hours when applied alone.
To assess the ability of PBO to increase the toxicity of a wide variety of pogostone derivatives, PBO and the pogostone derivatives were applied in combination to the pronotum of house flies.
Finally, the potential of plant essential oils to synergize the effect of Formula 30 was assessed.

[4] = test system: adult house flies; test: House fly feeding assay (choice assay, FIG. 5); type: in vivo; details: 15% w/w in fly food, total mortality at 5 days
Description: Formulas 13, 17, 24, 26, 10, 27, and 29 and control (acetone and boric acid) were incorporated into 2 g of house fly food (1:1 dry milk and sucrose) at rate of 15%. Specifically, approximately 20-30 adult house flies ( ) were introduced into aquaria with a French square filled with de-ionized water. Cotton dental wicks were used to draw water up and present it to flies at the top of the French square. Compounds were introduced at a concentration of (15% w/w food) into 1:1 mixtures of evaporated milk powder and sucrose. MUSCALURE™, a potent house fly attractant/pheromone used in various house fly bait products, was also added to this mixture of bait and food at a concentration of 0.5% w/w food. Two grams of food mixed with compound was provided to house flies in each assay. Another 2 g of just fly food (no compound) was provided at the other end of the assay chamber to serve as untreated source of food. This was done to assess the ability of flies to feed on the treated food source (palatability). If acetone was used as the carrier throughout the experiment, the food was carefully stirred repeatedly to ensure evaporation so that no more acetone was present in the food. Total mortality was assessed at 5 days after introducing house flies into individual mason jars with food treated with different compounds.

[5] = test system: Pyrethroid-resistant strain of Aedes aegypti (Puerto Rican strain); test: Toxicity to insecticide-resistant mosquitoes (FIG. 1); details: dose response curves FIG. 1
[6] = test system: adult female mosquitoes; test: whole plant or invertebrate; details: topical; for LD50: 24 h, read-out: 24-hour Mortality LD50 (μg/g mosquito)
Protocol: The first group of DHAA-based derivatives that were tested included Formula A2, Formula B3, Formula C3, and Formula D3. A solution of 0.5% or 1.5% of each of these compounds was applied to the mosquitoes, as described above. […] Acetone was used as a control.

[7] = test system: 3-4 instar Aedes aegypti larvae; test: Mosquito larvicide bioassay; type: in vivo; details: for LC50: Aedes aegypti
Protocol: Mosquito larvicide bioassays were performed by introducing various concentrations of test compounds (pyrone derivatives and rotenone) into acetone at various concentrations. 200 uL of these solutions were added to individual cups containing 10, 3-4 instar Aedes aegypti larvae and 25 mL of DI water. 2 mg of Tetramin™ was provided to each cup as a food source. […] Ataxia was used as the indicator of larval mortality. At least 5 concentrations were used which caused between 10 and 90% mortality. LC50 values were calculated using a PROC PROBIT model in SAS 9.4.

[8] = test system: adult female Aedes aegypti; test: Topical combination of Formula 13 with synthetic insecticides (FIGS. 6-9); type: in vivo; details: for 24-hr percentage mortality: 0.2 μL acetone, Formula 13 500 μg/mL, dibrom 10 μg/mL, thiamethoxam 100 μg/mL, permethrin 2.5 μg/mL, alone or in combination
Protocol: A low-dose concentration of Formula 13 (500 μg/mL) was applied in combination with chlorfenapyr (75 μg/mL), dibrom (10 μg/mL), thiamethoxam (100 μg/mL), and permethrin (2.5 μg/mL) to the pronotum of adult female Aedes aegypti in 0.2 μL of acetone. These concentrations were chosen as they produced little-to-no mortality at 24 hours after application. Knockdown (immobilization) was recorded at 1 hour after application and mortality was recorded at 24, 48, and 72 hours after initial application. These applications were run in parallel to a topical application of a combined mixture of 500 μg/mL Formula 13 and 75 μg/mL of chlorfenpayr to the pronotum of adult female mosquitoes. For this experiment, total of 25 mosquitoes were treated within each replicate, with a minimum of 3 replicates utilized for each treatment. Synergism was defined as the higher percentage mortality in the insecticidal combination of both Formula 13 and chlorfenapyr compared to each individual component applied by itself.

[9] = test system: Western corn rootworm larvae; test: Seed treatment testing: rootworm survival (FIG. 2A); type: in vivo; details: seeds coated with compound; 1 week after introduction of larvae
Protocol: (§1) Corn seeds used were a non-transgenic type strain of corn to prevent confounding results. Germination typically occurred between 2-4 days after moistening.
(§2) Seed coating was accomplished by placing 20 g of corn seeds or soybeans into a container with approximately 1 mL of a 1:5 Elmer's glue:water solution with a small amount of Triton-X100™ (present 100 μL/5 mL). For solid compounds, 0.25 g of compound was subsequently introduced into the container. This mixture of seeds, Elmer's Glue/water/Triton-X 100™ solution, and active compound was mixed thoroughly until seeds were coated with the active ingredient.
(§3) For each treatment, 0.25 g of liquid compound was dissolved in 5 mL of hexane. 0.25 g of Hi-Sil 233 silica gel was introduced into this mixture of hexane and active ingredient. The solvent was blown-off using a rotary evaporator, allowing for the compound to adsorb to the silica gel. This 0.5 g of silica gel:active ingredient was then used as the solid material used for coating the seeds. The seeds were then coated with the same method used for solid compound.
(§4) Three corn seeds coated in pogostone derivative treatments were germinated in small, 2-oz. […] Germination of seedlings was also recorded at the end of the assay by counting the total number of seeds that produced roots out of the 3 seeds in each container/replicate and recorded as total percentage germination. […]

[10] = test system: corn seeds; test: Seed treatment testing: survival/germination of treated corn seeds (FIG. 2B); type: in vivo; details: seeds coated with compound; 1 week after introduction of larvae
Protocol: as §1, §2, §3, §4

[11] = test system: adult flies; test: Contact toxicity on treated filter paper; type: in vivo; details: filter paper treated with 1 mL in acetone; 24 hours
Protocol: Filter papers were treated with 1 mL of the disclosed compounds in acetone at varying concentrations, and the filter papers were placed in a dish. Ten adult flies were added to each dish and a sugar pad was added to each dish to ensure that any mortality could be attributed to the compound instead of starvation. Mortality was assessed at 24 hours.

[12] = Mosquito Knockdown Properties (1 hour), topical application
[13] = Mosquito Toxicity (24 hours), topical application to pronotum

Row | Structure (SMILES) | ED50 [1, 12] | LD50 [1, 13] | insecticidal properties compared with natural pogostone, natural pyrethrins or terpenoids [1] | LD50 (ug/g fly) [2] | mortality compared with boric acid [4] | ED50 ([1]; topical, 1 h) | LD50 ([1]; topical, 24 h) | also measured
1 | O=C(c1c(O)c2ccccc2oc1=O)C1CC1 [Formula 29] | 613 mg/kg | 47.7 mg/kg | possessed better insecticidal properties than natural pogostone | 1761 ug/g fly | performed better than boric acid | – | – | LD50 [3]: 1761 µg/g
2 | O=C(c1c(O)c2ccccc2oc1=O)C(Cl)Cl [Formula 31] | > 1500 mg/kg | > 1500 mg/kg | – | >6,000 ug/g fly | – | – | – | LD50 (μg/g) [3]: >6,000 μg/g
3 | CCCC(=O)c1c(O)c2ccccc2oc1=O [Formula 14] | – | – | possessed better insecticidal properties than natural pogostone | >6,000 ug/g fly | – | > 1500 mg/kg | 139 mg/kg | insecticidal capacity compared with natural pyrethrins [5]: outperformed natural pyrethrins; 1-hour Knockdown EC50 (μg/g mosquito) [6]: >1500 μg/g mosquito; LD50 [6]: 139 mg/kg; LD50 (μg/g) [3]: >6,000 μg/g; LC50 ([7]; larval mortality at 24 hours, in 25 mL DI water, read-out: LC50): 0.9 µg/mL; larvicidal properties compared with natural pogostone or rotenone ([7]; words): possessed better larvicidal properties than natural pogostone; also recorded: possessed better larvicidal properties than rotenone; also recorded: performed as well as the rotenone
4 | CCOCn1c(-c2ccc(Cl)cc2)c(C#N)c(Br)c1C(F)(F)F [chlorfenapyr, 4-bromo-2-(4-chlorophenyl)-1-ethoxymethyl-5-trifluoromethylpyrrol-3-carbonitrile] | – | – | – | – | – | – | – | percentage mortality at 24 hour ([8]; chlorfenapyr 75 ug/mL, Formula 13 500 ug/mL, alone or combined, words): very low mortality
5 | COP(=O)(OC)OC(Br)C(Cl)(Cl)Br (stereo not shown) [Dibrom] | – | – | – | – | – | – | – | 24-hr percentage mortality [8]: 11%
6 | Cc1cc(O)c(C(=O)CCC(C)C)c(=O)o1 [Pogostone, 3-(4-Methylpentanoyl)-4-hydroxy-2H] | 18.4 mg/kg | 388 mg/kg | – | – | – | – | – | western corn rootworm mortality [9]: significant western corn rootworm mortality; phytotoxicity to treated corn seeds [10]: Significant phytotoxicity; percent mortality, 0.10% Concentration [11]: 95%; percent mortality, 0.25% Concentration [11]: 100%; percent mortality, 0.50% Concentration [11]: 100%; 1-hour Knockdown EC50 (μg/g mosquito) [6]: 95.2 μg/g mosquito; LD50 [6]: 262 mg/kg; LC50 ([7]; 24 h): 18.3 µg/mL (≈ 81.6 µM)
7 | Cc1cc(O)c(C(=O)/C=C/C(C)C)c(=O)o1 [Formula 10] | > 1500 mg/kg | > 1500 mg/kg | – | – | performed better than boric acid | – | – | –
8 | CC(C)C(=O)c1c(O)c2ccccc2oc1=O [Formula 19] | – | – | possessed better insecticidal properties at least as well as natural pyrethrins | 1495 ug/g fly | – | 384 mg/kg | 24.7 mg/kg | 1-hour Knockdown EC50 (μg/g mosquito) [6]: 384.5 μg/g mosquito; LD50 [6]: 25 mg/kg; LD50 [3]: 1495 µg/g
9 | CC(C)C(=O)c1c(O)c2cc(F)ccc2oc1=O [Formula 30] | > 1500 mg/kg | 45.6 mg/kg | possessed better insecticidal properties than natural pogostone | 645 ug/g fly | – | – | – | toxicity to house flies ([2]; words): extremely effective at killing house flies; toxicity of Formula 30 in combination with cedarwood (Texas type) oil (CWT) ([3]; 1% CWT, dose-response curves FIG. 11): significant increase in toxicity; also recorded: shifting the dose-response curve to the left; toxicity of Formula 30 in combination with PBO ([3]; 1% PBO, dose-response curves FIG. 11): significant increase in toxicity; also recorded: shifting the dose-response curve to the left; LD50 [3]: 645 µg/g
10 | CC1(C)C(C=C(Cl)Cl)C1C(=O)OCc1cccc(Oc2ccccc2)c1 (racemic) [Permethrin, 3-phenoxybenzyl (1RS)-cis,trans-3-(2,2-dichlorovinyl)-2,2-dimethylcyclopropanecarboxylate] | – | – | – | – | – | – | – | 24-hr percentage mortality [8]: 28%
11 | O=C(CCc1ccccc1)c1c(O)c2ccccc2oc1=O [Formula 24] | – | – | – | – | performed similarly to boric acid | > 1500 mg/kg | > 1500 mg/kg | –
12 | CCCCCCCCCCCC(=O)c1c(O)c2ccccc2oc1=O [Formula 26] | – | – | – | – | performed similarly to boric acid | > 1500 mg/kg | > 1500 mg/kg | –
13 | CN1COCN(Cc2cnc(Cl)s2)C1=N[N+](=O)[O-] [Thiamethoxam, 3-((2-chloro-5-thiazolyl)methyl)-5-methyl-4-nitroiminotetrahydro-1,3,5-oxadiazine] | – | – | – | – | – | – | – | 24-hr percentage mortality [8]: 25.6%
